Here are results for seven molecules from publication PMC10057391, “Novel ^68Ga-Labeled Pyridine-Based Fibroblast Activation Protein-Targeted Tracers with High Tumor-to-Background Contrast” (Pharmaceuticals, 2023).

Read-outs that look alike come from different tables or passages of the source.

The test system of one series is FAP. Set-up: method as in PMID 24617858. The following applies: cited from earlier work.
A further series concerns the target T1, recombinant human FAP (Homo sapiens, UniProt Q12884).
T1 construct: purchased Bio-legend, San Diego, CA, USA
T1 sequence (Q12884 1-760): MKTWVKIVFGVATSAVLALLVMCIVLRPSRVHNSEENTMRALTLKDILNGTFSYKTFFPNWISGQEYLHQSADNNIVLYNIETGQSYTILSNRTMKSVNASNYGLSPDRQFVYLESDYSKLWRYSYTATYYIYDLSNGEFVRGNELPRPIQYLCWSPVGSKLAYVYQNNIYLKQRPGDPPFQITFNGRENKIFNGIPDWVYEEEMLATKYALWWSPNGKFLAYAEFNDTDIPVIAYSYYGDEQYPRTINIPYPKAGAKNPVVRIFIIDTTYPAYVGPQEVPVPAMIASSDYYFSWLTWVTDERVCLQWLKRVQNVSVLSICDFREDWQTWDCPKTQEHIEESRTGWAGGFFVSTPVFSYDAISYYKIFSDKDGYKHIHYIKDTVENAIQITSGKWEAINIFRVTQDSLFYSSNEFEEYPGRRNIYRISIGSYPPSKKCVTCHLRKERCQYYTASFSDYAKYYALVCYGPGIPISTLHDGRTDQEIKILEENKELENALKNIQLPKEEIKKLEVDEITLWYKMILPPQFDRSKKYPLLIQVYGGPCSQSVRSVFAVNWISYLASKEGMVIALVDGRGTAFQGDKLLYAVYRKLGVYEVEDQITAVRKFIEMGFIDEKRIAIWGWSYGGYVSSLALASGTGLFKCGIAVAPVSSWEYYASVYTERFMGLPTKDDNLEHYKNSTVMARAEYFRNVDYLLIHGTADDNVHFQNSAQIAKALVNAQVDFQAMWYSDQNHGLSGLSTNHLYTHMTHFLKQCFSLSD
Description: In vitro FAP fluorescence enzyme inhibition assay (Suc-Gly-Pro-AMC substrate). The format is biochemical. The following applies: nonradioactive Ga-complexed standards. Here is the method:
The binding affinities of Ga-AV02053 and Ga-AV02070 to human FAP were measured by an enzyme inhibition assay using Suc-Gly-Pro-AMC as the FAP substrate. The human FAP enzymatic activity on the substrate was inhibited by Ga-AV02053 and Ga-AV02070 in a dose dependent-manner (Figure 2).
The half maximal inhibitory concentration (IC50) values of the tested compounds for FAP were measured by in vitro enzymatic assay. The recombinant human FAP (Bio-legend, San Diego, CA, USA; 0.2 µg/mL, 50 µL) was added into costar 96-well plate. PBS and varied concentrations (0.2 pM to 2 µM) of tested nonradioactive Ga-complexed standards were added to each well (in duplicate) containing the recombinant human FAP. After being incubated for 30 min at 37 °C, 50 µL of Suc-Gly-Pro-AMC (2 µM, Bachem, Torrance, CA, USA) was added to each well. The fluorescent signals were acquired at 15, 30, 45, and 60 min using FlexStation 3 Multi-Mode Microplate Reader with excitation at 380 nm and emission at 460 nm. The IC50 (FAP) values were calculated using “nonlinear fit model” built-in model in GraphPad Prism 7.02 software.

The subject of series [1] is HEK293T:hFAP tumor xenografts. Description: Ex vivo biodistribution and blocking study in HEK293T:hFAP tumor-bearing mice. The following applies: 1 h post-injection; for average kidney uptake: range given for the two tracers together; for tumor uptake: HEK293T:hFAP tumor; for average tumor uptake with co-injection of FAPI-04 / reduction of average tumor uptake by co-injection of FAPI-04: blocking, FAPI-04 250 µg co-injected. Here is the method: Biodistribution studies were conducted at 1 h post-injection with [^68Ga]Ga-AV02053 and [^68Ga]Ga-AV02070 in HEK293T:hFAP tumor-bearing mice, and the data are compared with those obtained previously using [^68Ga]Ga-FAPI-04 (Figure 4 and Figure 5 and Table S4). The results are consistent with the observations from their PET images. Except tumor and kidneys (1.35–1.85%ID/g), the average uptake values of [^68Ga]Ga-AV02053 and [^68Ga]Ga-AV02070 in all other collected organs/tissues were <0.6%ID/g. The tumor uptake values of [^68Ga]Ga-AV02053, [^68Ga]Ga-AV02070, and [^68Ga]Ga-FAPI-04 were 5.60 ± 1.12, 7.93 ± 1.88, and 12.5 ± 2.00%ID/g, respectively. […] This also led to higher tumor-to-blood, tumor-to-muscle and tumor-to-bone uptake ratios for [^68Ga]Ga-AV02053 (25.2 ± 1.97, 51.2 ± 19.8 and 38.1 ± 5.03, respectively) and [^68Ga]Ga-AV02070 (22.9 ± 10.1, 45.7 ± 9.88 and 34.3 ± 7.35, respectively) than [^68Ga]Ga-FAPI-04 (11.7 ± 2.04, 18.8 ± 4.09 and 3.93 ± 1.16, respectively) (p < 0.05).
(§1) Imaging and biodistribution studies were performed using male NOD.Cg-Rag1tm1Mom Il2rgtm1Wjl/SzJ (NRG) mice following previously published procedures. The experiments were conducted according to the guidelines established by the Canadian Council on Animal Care and approved by Animal Ethics Committee of the University of British Columbia. The mice were briefly sedated by inhalation of 2.5% isoflurane in oxygen, and HEK293T:hFAP cells (8.5 × 10^6 cells) were inoculated subcutaneously behind the left shoulder. When the tumor grew to 5–8 mm in ~3 weeks, the mice were used for PET/CT imaging and biodistribution studies.
For biodistribution studies, the mice were injected with the radiotracer (~2–4 MBq), as described above. For the blocking study, the mice were co-injected with 250 μg of FAPI-04. At 1 h post-injection, the mice were euthanized by CO2 inhalation. Blood was withdrawn by cardiac puncture, and organs/tissues of interest were collected, weighed, and counted using a Perkin Elmer (Waltham, MA, USA) Wizard2 2480 automatic gamma counter.

In series [2] the test system is HEK293T:hFAP tumor xenografts. Description: PET/CT imaging in mice bearing HEK293T:hFAP tumor xenografts. The format is in vivo. The following applies: PET imaging and biodistribution, 1 h post-injection. Here is the method:
Both tracers were excreted primarily through the renal pathway and had very low background uptake in normal organs/tissues. Although [^68Ga]Ga-AV02053 and [^68Ga]Ga-AV02070 had lower tumor uptake than that of previously reported [^68Ga]Ga-FAPI-04, both of them had much lower background uptake, resulting in better tumor-to-background contrast than that of [^68Ga]Ga-FAPI-04 (Figure 3).
as §1
PET/CT imaging experiments were carried out using a Siemens (Knoxville, TN, USA) Inveon micro PET/CT scanner. Each tumor-bearing mouse was injected with ~4–6 MBq of ^68Ga-labeled tracer through a lateral caudal tail vein under 2.5% isoflurane in oxygen anesthesia, followed by recovery and then roamed freely in its cage during the uptake period. […]

Series [3] is described as follows: LogD7.4 measurement, shake flask method (n-octanol/PBS pH 7.4). The format is physicochemical. The following applies: n-octanol / phosphate-buffered saline pH 7.4, shake flask. An excerpt:
The lipophilicity of ^68Ga-labeled AV02053, AV02070, and FAPI-04 were estimated by measuring their LogD7.4 values using the shake flask method with n-octanol and phosphate-buffered saline (pH 7.4). The LogD7.4 values of [^68Ga]Ga-AV02053, [^68Ga]Ga-AV02070, and [^68Ga]Ga-FAPI-04 were −3.75 ± 0.16, −3.45 ± 0.10, and −1.02 ± 0.35, respectively. The values indicate that these ^68Ga-labeled tracers are hydrophilic, and the pyridine-based FAP-targeted tracers, [^68Ga]Ga-AV02053 and [^68Ga]Ga-AV02070, are more hydrophilic than [^68Ga]Ga-FAPI-04.
The lipophilicity characteristics of the ^68Ga-labeled pyridine-based FAPIs were determined by calculating the logarithm of the distribution coefficient (logD) in n-octanol/phosphate-buffered saline (PBS) of pH 7.4. Purified ^68Ga-labeled tracer (50 µL) was added into a test tube containing 1 mL n-octanol and 1 mL PBS. The mixture was vortexed, followed by centrifugation for 5 min at 3000 rpm. The two layers were then collected separately, and the radioactivity was counted using a Perkin Elmer (Waltham, MA, USA) Wizard2 2480 automatic gamma counter. After adjusting the counts to background and calculating the ratio (D) of the activity of the organic to that of the aqueous phase, the logD values were then calculated.

Series [4] relates to HEK293T:hFAP tumor xenografts. More on the design: method as in PMID 36770755. The following applies: 1 h post-injection, cited from earlier work.

With `N#C[C@@H]1CCCN1C(=O)CNC(=O)c1ccnc2ccccc12` [(4-quinolinoyl)glycyl-(2S)-cyanopyrrolidine], the IC50 in the series on FAP is […].
Consider `CN(CCN(C)c1cc(C(=O)NCC(=O)N2CC(F)(F)C[C@H]2C#N)ccn1)C(=O)CN1CCN(CC(=O)[O-])CCN(CC(=O)[O-])CCN(CC(=O)[O-])CC1.[Ga+3]` [Ga-AV02070], for which the IC50 at recombinant human FAP was determined as 0.0171 ± 0.0046 µM.
On to `CN(CCN(C)c1ccc(C(=O)NCC(=O)N2CC(F)(F)C[C@H]2C#N)cn1)C(=O)CN1CCN(CC(=O)[O-])CCN(CC(=O)[O-])CCN(CC(=O)[O-])CC1.[Ga+3]` [Ga-AV02053], for which, at recombinant human FAP, the half-inhibitory concentration (IC50) amounted to 0.187 ± 0.052 µM.
`CN(CCN(C)c1ccc(C(=O)NCC(=O)N2CC(F)(F)C[C@H]2C#N)cn1)C(=O)CN1CCN(CC(=O)[O-])CCN(CC(=O)[O-])CCN(CC(=O)[O-])CC1.[68Ga+3]` [[^68Ga]Ga-AV02053]: in series [1], the “average uptake in all other collected organs/tissues (except tumor and kidneys)” value was less than 0.6 %ID/g; the “average uptake in other major organs with vs without co-injection of FAPI-04” value is “no significant difference”; the blood uptake amounted to 0.22 ± 0.04 %ID/g; the bone uptake worked out at 0.14 ± 0.02 %ID/g. In series [1], the muscle uptake was 0.12 ± 0.05 %ID/g, the tumor-to-blood uptake ratio was found to be 25.2 ± 1.97, the tumor-to-bone uptake ratio turned out to be 38.1 ± 5.03 and the tumor-to-muscle uptake ratio amounted to 51.2 ± 19.8. In series [1], the average kidney uptake is listed as 1.35–1.85 %ID/g, the tumor uptake was found to be 5.6 ± 1.12 %ID/g, the “average tumor uptake with co-injection of FAPI-04” value is 0.30 %ID/g and the “reduction of average tumor uptake by co-injection of FAPI-04” value came to 95%. In addition, the excretion pathway result in series [2] is listed as “excreted mainly through the renal pathway”. This molecule also came in with a LogD7.4 in series [3] of −3.75 ± 0.16.
On to `N#C[C@@H]1CC(F)(F)CN1C(=O)CNC(=O)c1ccnc2ccc(OCCCN3CCN(C(=O)CN4CCN(CC(=O)[O-])CCN(CC(=O)[O-])CCN(CC(=O)[O-])CC4)CC3)cc12.[68Ga+3]` [[^68Ga]Ga-FAPI-04], for which, in series [4] (obtained previously), the blood uptake was 1.07 ± 0.08 %ID/g, the bone uptake was 3.36 ± 1.09 %ID/g, the muscle uptake is 0.67 ± 0.05 %ID/g and the tumor-to-blood uptake ratio is 11.7 ± 2.04. In series [4] (obtained previously), the tumor-to-bone uptake ratio is 3.93 ± 1.16 and the tumor-to-muscle uptake ratio is 18.8 ± 4.09. Also, in series [4] (HEK293T:hFAP tumor, previously reported), the tumor uptake was 12.5 ± 2.00 %ID/g. In series [3], this molecule gave a LogD7.4 of −1.02 ± 0.35.
For `CN(CCN(C)c1cc(C(=O)NCC(=O)N2CC(F)(F)C[C@H]2C#N)ccn1)C(=O)CN1CCN(CC(=O)[O-])CCN(CC(=O)[O-])CCN(CC(=O)[O-])CC1.[68Ga+3]` [[^68Ga]Ga-AV02070], in series [1], the “average uptake in all other collected organs/tissues (except tumor and kidneys)” value is less than 0.6 %ID/g; the “average uptake in other major organs with vs without co-injection of FAPI-04” value was “no significant difference”; the blood uptake is recorded as 0.36 ± 0.05 %ID/g; the bone uptake was 0.23 ± 0.06 %ID/g. For the same molecule, in series [1], the muscle uptake amounted to 0.19 ± 0.10 %ID/g, the tumor-to-blood uptake ratio is 22.9 ± 10.1, the tumor-to-bone uptake ratio was 34.3 ± 7.35 and the tumor-to-muscle uptake ratio is listed as 45.7 ± 9.88. Moreover, in series [1], the average kidney uptake is on record as 1.35–1.85 %ID/g, the tumor uptake stood at 7.93 ± 1.88 %ID/g, the “average tumor uptake with co-injection of FAPI-04” value is reported as 0.21 %ID/g and the “reduction of average tumor uptake by co-injection of FAPI-04” value is on record as 97%. For the same molecule, in series [2], the excretion pathway entry is “excreted mainly through the renal pathway”. The same molecule gave a LogD7.4 in series [3] of −3.45 ± 0.10.
For the molecule `N#C[C@@H]1CCCN1C(=O)CNC(=O)c1ccncc1` [(pyridine-4-carbonyl)glycyl-(2S)-cyanopyrrolidine], the half-maximal inhibitory concentration (IC50) in the series on FAP was 0.063 µM.
